US9926581B2, “Fagopyritol synthase genes and uses thereof” (Cornell Research Foundation, Inc., priority 2002, dated 2018)
Entries after “also recorded” stand apart in the source; their conditions may differ.

Assays:
Conditions in all cases: for activity as galactosyl acceptor: UDP-Gal as galactosyl donor, 20 mM substrates, 5 mM MnCl2, 30° C.
GmGolS = experiment: Galactinol synthase / fagopyritol synthase enzyme assay with recombinant GmGolS; type: biochemical, Glycine max
Method: (§1) Both the crude soluble protein extracts from E. coli and the purified GolS recombinant proteins were used in enzyme assays. […] In galactinol synthase assays, UDP-Gal was substituted with 20 mM galactinol as the galactosyl donor. Assays were run at 30° C. for 30 to 300 minutes. Reactions were stopped by addition of 50 μL of 100% ethanol.
Both crude soluble protein extracts from E. coli containing the recombinant GmGolS protein and purified recombinant GmGolS protein were used in enzyme assays. […] Assays were run at 30° C. for 30 to 300 minutes. Reactions were stopped by addition of 50 μL of 100% ethanol.
(§2) The reactions were stopped after 3 hours with the addition of 50 μL of 100% EtOH.
(§3) To determine the concentration of Mn^2+ in which the enzymes had the greatest activity, multiple assays were completed varying the amount of Mn^2+. […] After 3 hours, the reactions were stopped with the addition of 50 μL of 100% EtOH.
(§4) The reactions were completed using 1-2 μg of enzyme in a 50 μL solution containing 20 mM galactosyl acceptor, 20 mM UDP-galactose, 50 mM HEPES, pH 7.0, 2 mM DTT, 5 mM Mn^2+ at 30° C. After 3 hours, the reactions were stopped with the addition of 50 of 100% EtOH.
(§5) All samples from the assays were analyzed by gas chromatography. All were prepared for analysis in the same way. […] The solution was then filtered using NanoSep tubes and 100 μL was transferred to a silation vial. The samples were then dried under nitrogen and desiccated over P2O5 overnight. The dried samples were then derivitized with 100 μL of TMSI:pyridine (1:1, v/v) and then analyzed by gas chromatography.

FeGolS-2 = FeGolS-2 (Fagopyrum esculentum, UniProt Q7XZ07); experiment: Fagopyritol synthase / galactinol synthase enzyme assay with recombinant FeGolS-2 (products by gas chromatography); type: biochemical
Sequence of FeGolS-2 (Q7XZ07 entry or part of it): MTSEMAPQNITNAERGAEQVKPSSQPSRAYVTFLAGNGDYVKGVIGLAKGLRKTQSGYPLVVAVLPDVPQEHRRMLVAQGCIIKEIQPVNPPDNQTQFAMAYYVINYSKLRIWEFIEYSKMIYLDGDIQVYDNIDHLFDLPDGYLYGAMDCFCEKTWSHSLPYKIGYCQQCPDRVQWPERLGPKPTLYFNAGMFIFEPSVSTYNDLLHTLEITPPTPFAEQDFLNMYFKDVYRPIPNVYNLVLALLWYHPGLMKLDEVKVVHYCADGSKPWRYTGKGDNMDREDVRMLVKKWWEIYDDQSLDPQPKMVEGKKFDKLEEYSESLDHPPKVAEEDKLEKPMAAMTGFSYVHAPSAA
Method: as §1, §2, §3, §4, §5

FeGolS-1 = experiment: Fagopyritol synthase / galactinol synthase enzyme assay with recombinant FeGolS-1 (products by gas chromatography); type: biochemical, Fagopyrum esculentum
Method: Both the crude soluble protein extracts from E. coli and the purified GolS recombinant proteins were used in enzyme assays. […] In galactinol synthase assays, UDP-Gal was substituted with 20 mM galactinol as the galactosyl donor. Assays were run at 30° C. for 30 to 300 minutes. Reactions were stopped by addition of 50 μL of 100% ethanol. […] The reactions were stopped after 3 hours with the addition of 50 μL of 100% EtOH. […] To determine the concentration of Mn^2+ in which the enzymes had the greatest activity, multiple assays were completed varying the amount of Mn^2+. […] After 3 hours, the reactions were stopped with the addition of 50 μL of 100% EtOH. […] After 3 hours, the reactions were stopped with the addition of 50 of 100% EtOH. All samples from the assays were analyzed by gas chromatography. All were prepared for analysis in the same way. […] The solution was then filtered using NanoSep tubes and 100 μL was transferred to a silation vial. The samples were then dried under nitrogen and desiccated over P2O5 overnight. The dried samples were then derivitized with 100 μL of TMSI:pyridine (1:1, v/v) and then analyzed by gas chromatography.

[1] = 20 mM galactosyl donor instead of UDP-Gal

Row | SMILES | activity as galactosyl acceptor (GmGolS) | activity as galactosyl acceptor (FeGolS-1) | also measured
1 | CO[C@H]1[C@H](O)[C@@H](O)[C@@H](O)[C@H](O)[C@@H]1O [D-Pinitol, 1D-3-O-methyl-chiro-inositol] | not active | – | –
2 | COC1[C@H](O)[C@H](O)C(O)[C@H](O)[C@H]1O (stereo partly drawn) [D-bornesitol, 1D-1-O-methyl-myo-inositol] | reduced activity | can be used as galactosyl acceptors | activity as galactosyl acceptor (GmGolS; listed as bornesitol): can be used as galactosyl acceptors; activity as galactosyl acceptor (FeGolS-2): can be used as galactosyl acceptors
3 | COC1[C@@H](O)[C@@H](O)C(O)[C@H](O)[C@H]1O (stereo partly drawn) [D-ononitol, 1D-4-O-methyl-myo-inositol] | not active | – | –
4 | OC[C@H]1O[C@H](OC2[C@@H](O)[C@H](O)C(O)[C@H](O)[C@@H]2O)[C@H](O)[C@@H](O)[C@H]1O (some centres unmarked) [Galactinol, galactinol] | – | – | activity as galactosyl donor (GmGolS; galactosyl donor instead of UDP-Gal): not active; activity as galactosyl donor (FeGolS-2; [1]): Neither FeGolS-1 nor FeGolS-2 was active; activity as galactosyl donor (FeGolS-1; [1]): Neither FeGolS-1 nor FeGolS-2 was active
5 | OC1C(O)C(O)C(O)C(O)C1O [L-chiro-inositol] | active; also recorded: can be used as galactosyl acceptors | can be used as galactosyl acceptors | –
6 | CO[C@H]1[C@H](O)[C@@H](O)[C@H](O)[C@H](O)[C@H]1O [L-quebrachitol, 1L-2-O-methyl-chiro-inositol] | not active | – | –
7 | O[C@H]1[C@H](O)[C@@H](O)[C@H](O)[C@@H](O)[C@H]1O [myo-Inositol, myo-inositol] | catalyzed the biosynthesis of galactinol; also recorded: can be used as galactosyl acceptors | catalyzed the biosynthesis of galactinol; also recorded: can be used as galactosyl acceptors | activity as galactosyl acceptor (FeGolS-2): catalyzed the biosynthesis of galactinol; also recorded: can be used as galactosyl acceptors
8 | O[C@H]1[C@H](O)[C@@H](O)[C@H](O)[C@@H](O)[C@@H]1O [scyllo-inositol] | reduced activity; also recorded: can be used as galactosyl acceptors | can be used as galactosyl acceptors | activity as galactosyl acceptor (FeGolS-2): can be used as galactosyl acceptors
9 | COC1[C@@H](O)[C@H](O)C(O)[C@H](O)[C@H]1O (some centres unmarked) [sequoyitol, 5-O-methyl-myo-inositol] | not active | – | –

The next lines start with results.

Row | activity as galactosyl acceptor (GmGolS) | activity as galactosyl acceptor (FeGolS-1) | SMILES | also measured
10 | – | can be used as galactosyl acceptors | OC1C(O)C(O)C(O)C(O)C1O [D-chiro-Inositol, D-chiro-inositol] | activity as galactosyl acceptor (GmGolS; listed as D-chiro-inositol): catalyzed the biosynthesis of fagopyritol B1, but not fagopyritol A1; also recorded: catalyzed the biosynthesis of fagopyritol B1; also recorded: can be used as galactosyl acceptors; activity as galactosyl acceptor (FeGolS-1; listed as D-chiro-inositol): catalyzed the biosynthesis of fagopyritol B1
11 | no activity | – | OC1C(O)C(O)C(O)C(O)C1O (stereo not drawn) [epi-inositol] | –
